The source of these data is US12226405B2, “Compounds and compositions for inhibiting the activity of HIF2-alpha and their methods of use” (Novartis AG, priority 2020, dated 2025).

This assay deals with HIF2α-dependent transcription in 786-O-HRE-Luc cells. As to the kind of experiment: In vitro cellular hypoxia response element (HRE) reporter gene assay (RGA) for HIF2α. It is filed as cell-based, human. The conditions noted are these: Homo sapiens, 24 hours incubation. The essentials:
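Renal carcinoma cells carrying a 4×HRE-driven PEST-destabilised firefly luciferase were treated a day after seeding with eleven 2-fold compound dilutions (0.1% DMSO) for 24 h at 37° C. BrightGlo luminescence, background-subtracted and expressed as % of DMSO control, was fitted four-parametrically for IC50.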

For the compound `FC(F)OC1=CC(C(F)(F)F)=CN2C[C@@]3(CCC(F)(F)c4c3ccnc4Cl)N=C12` [Example 31, (S)-1′-chloro-8-(difluoromethoxy)-8′,8′-difluoro-6-(trifluoromethyl)-7′,8′-dihydro-3H,6′H-spiro[imidazo[1,2-a]pyridine-2,5′-isoquinoline]], the IC50 turned out to be 246 nM.

Compound `FC(F)OC1=CC(C(F)(F)F)=CN2C[C@@]3(CCOc4cc(C(F)(F)F)ccc43)N=C12` [Example 44, (S)-8′-(difluoromethoxy)-6′,7-bis(trifluoromethyl)-3′H-spiro[chroman-4,2′-imidazo[1,2-a]pyridine]] showed an IC50 of 112 nM. Compared with the last compound, the IC50 is about 2.2-fold lower.
